The record followed here is publication PMC8305076, “Comprehensive Evaluation of Biological Effects of Pentathiepins on Various Human Cancer Cell Lines and Insights into Their Mode of Action” (International Journal of Molecular Sciences, 2021).

The subject of one experiment is HAP-1 and HAP-1.KO.GPx1. Kind of experiment: DCFDA ROS assay with GSH added to the medium. Format: cell-based, human. To be noted: 25 µM pentathiepin plus 3 or 30 µM GSH in medium, 15 min. The method, then: As thiols are supposedly needed for the activation of the pentathiepins, the influence of additional glutathione added to the culture medium during treatment on the intracellular ROS levels was assessed. In these experiments, 3 or 30 µM of GSH were added to the medium containing 25 µM of pentathiepin or solvent, respectively (Figure 9).
In order to quantify intracellular ROS, we performed a flow cytometric assay based on the ROS-sensor 2′,7′-dichlorofluorescein diacetate (DCFDA). […] Per condition, 250,000 cells were seeded in 2 mL of medium per well of a 6-well plate and allowed to adhere overnight. For measurement of acute ROS, the cells were stained with 1 mL of a 20 µM DCFDA-PBS solution for 30 min under standard incubation conditions. […] After removing the solution and washing again with PBS, the cells were detached by using 0.5 mL of a diluted trypsin/EDTA-PBS solution (25%) and harvested with 1 mL of culture medium by carefully rinsing the wells. The cell suspension was transferred to 1.5 mL tubes, centrifuged for 5 min at 500× g, and washed with 1 mL of PBS. After removing the supernatant, each pellet was resuspended in 0.5 mL of PBS for measurement via the MACSquant Analyzer 10 at λEx/Em = 488/530 nm. Relative ROS levels resulting from treatment with pentathiepin were calculated by relating the fluorescence intensity of treated samples to the negative control. For the experiments covering periods of 24 and 48 h, the cells were incubated with the compounds first and stained with DCFDA afterwards. To assess the influence of additional GSH, we included 3 or 30 µM GSH to the medium containing 25 µM of pentathiepin, and the protocol was followed as described.

Another experiment has as its system pBR322 plasmid DNA. Description: plasmid cleavage assay. Particulars: for open circular DNA (single-strand breaks) / linearized plasmid (double-strand breaks): pH 7.1, 20 h, 37 °C; for DNA cleavage: summary grade. Format: biochemical. On the set-up: key to DNA cleavage: no impact (0); weak impact (+); strong impact (++). An excerpt: We pursued two different strategies to assess the potential of the pentathiepins to damage DNA: a simple plasmid cleavage assay and the cellular Comet assay. The former is a straightforward method to investigate whether a test compound can cleave DNA in vitro, and if so, whether single and/or double strand breaks are created, while the latter is an ex vivo assay that measures DNA fragmentation in single cells. In the plasmid cleavage assay, a single strand break would relax the supercoiled plasmid (scDNA) and lead to the detection of open circular DNA (ocDNA), whereas a double-strand break would linearize the plasmid (linDNA). An agarose gel electrophoresis enables the discrimination of the distinct plasmid conformations due to their specific electrophoretic mobilities (Figure 11a).
This assay was used to assess the cleaving ability of the pentathiepins in a cell-free setting and on the basis of procedures described in [54]. Plasmids occur in three different conformations with distinct electrophoretic mobilities that can finally be separated visualized via agarose gel electrophoresis. For each condition, 0.3 µg of pBR322 plasmid DNA was incubated with either the pentathiepin or a corresponding amount of the solvent acetonitrile. Incubations were performed in sodium phosphate buffer (50 mM) with or without GSH for 20 h at 37 °C in a water bath. Afterwards, the samples were separated by using an agarose gel (1%) run at 80 V for 2 h. Resulting bands were stained with GelRed® (Sigma-Aldrich, Taufkirchen, Germany),) and imaged and quantified via Gel-Doc EZ Imager and Image Lab (Bio-Rad, Feldkirchen, Germany), respectively. To assess the cleavage ability of the pentathiepins, we incubated the plasmid with either 5 or 25 µM of compound at a fixed concentration of GSH (2 mM). In another experiment, the amount of GSH varied between 1 µM and 10 mM, while the pentathiepin concentration was 5 µM. In contrast to the aforementioned settings where a buffer pH of 7.1 was applied, in a third attempt, the influence of different pH on the cleavage outcome was analyzed by adjusting the buffer pH to 5.1, 6.1, or 8.1 while using fixed concentrations of both test compound and GSH. Another attempt to gain insights into the cleaving mechanism was made by adding either catalase, superoxide dismutase (100 µg/mL each), or both to 5 µM pentathiepin with 2 mM GSH.

In experiment [1] the test system is HAP-1, HAP-1.KO.GPx1, A2780 and Siso. Description: adapted MTT assay with ferrostatin-1 (ferroptosis). Format: cell-based, human. On the set-up: key: no impact (0); weak impact (+); strong impact (++). Particulars: summary grade. The method, then:
Not only apoptosis may contribute to the mainly ROS-based cytotoxicity of the pentathiepins but also ferroptosis, which derives from iron-dependent oxidative damage of the cell membrane. This form of programmed cell death is initiated via lipid peroxidation, which is normally held in check by the membrane-bound GPx4, an isoform of GPx1. As pentathiepins are potent GPx1 inhibitors, we indirectly investigated the possible role of GPx4 inhibition by precluding ferroptosis. Here, cells were incubated with a serial dilution of the respective pentathiepin, and either ferrostatin-1 (Fer-1) or vehicle control (DMSO) was added; Fer-1 is an established inhibitor of ferroptosis. The cell viability was measured after 48 h, and the activity of the compounds after adding or omitting Fer-1 was compared (Figure S50).
This experiment was performed similarly to that described in the previous section. To assess the importance of ferroptosis for cell death, a co-incubation of the cells with a serial dilution of the pentathiepins and ferrostatin-1 (Fer-1) as a known inhibitor of ferroptosis was performed. As negative control, the cells were incubated with the serial dilution of the test compounds and an amount of DMSO corresponding to the Fer-1 treatment solution. If ferroptosis were to be involved in the cytotoxicity of the compounds, the addition of Fer-1 should protect cells from the treatment with pentathiepin. […] The IC50 values were calculated as described above, and Fer-1-treated cells were set in relation to those without the additive.
Figure S50: Relative IC 50 in the four human cancer cell lines HAP -1, HAP -1.KO.GPx1, A2780 and Siso after treatment with pentathiepins 1-6 with either vehicle control (DMSO) or 1.5 or 6.0 µM ferrostatin -1 (Fer -1), respectively, for 48 h. The IC 50 of Fer-1-treated cells were relat ed to DMSO-treated samples (set to 1, dashed line) […]
(1 picture or pasted object on this page, not shown here)

Each structure is given as a SMILES string.

As for `CCOc1c2c(c3ccc(C(=O)N(CC)CC)cn13)SSSSS2` [Compound 4, 6-Ethoxy-N,N’-diethyl-[1,2,3,4,5]pentathiepino[6,7-a]indolizine-9-carboxamide], the “effect of added GSH on intracellular ROS” value in the experiment with HAP-1 and HAP-1.KO.GPx1 was “an ascending trend was observed but not determined as statistically significant”. Besides, in the experiment with pBR322 plasmid DNA (5 µM, 2 mM GSH), the “open circular DNA (single-strand breaks)” value is on record as “roughly 55%”. Besides, in the experiment with pBR322 plasmid DNA (25 µM, 2 mM GSH), the “linearized plasmid (double-strand breaks)” value (“linearized plasmid” for short) is “about 4%” and the “open circular DNA (single-strand breaks)” value was “about 75%”. In addition, in the experiment with pBR322 plasmid DNA, the DNA cleavage entry was “++”. In experiment [1], this molecule registered a Ferroptosis of 0.
For `CCOc1c2c(c3ccc(C(=O)N4CCN(C(=O)c5ccc(F)cc5)CC4)cn13)SSSSS2` [Compound 5, (6-Ethoxy-[1,2,3,4,5]pentathiepino[6,7-a]indolizin-9-yl)(4-(4-fluorobenzoyl)piperazinyl)methanone], the “effect of added GSH on intracellular ROS” value in the experiment on HAP-1 and HAP-1.KO.GPx1 is recorded as “roughly doubling the effect of the compound alone”. The “open circular DNA (single-strand breaks)” value with pBR322 plasmid DNA (5 µM, 2 mM GSH) is “roughly 55%”. Also, in the experiment with pBR322 plasmid DNA (25 µM, 2 mM GSH), the “linearized plasmid” value is recorded as “about 4%” and the “open circular DNA (single-strand breaks)” value is recorded as “about 75%”. Besides, the DNA cleavage entry in the experiment on pBR322 plasmid DNA was “++”. This molecule returned a Ferroptosis in experiment [1] of 0.
As for `CCOc1c2c(c3cnc4[nH]c(-c5ccc(OC)cc5)cc4n13)SSSSS2` [Compound 1, 11-Ethoxy-2-(4-methoxyphenyl)-3H-[1,2,3,4,5]pentathiepino[6′,7′:3,4]pyrrolo[1,2-a]pyrrolo[2,3-e]pyrazine], the “effect of added GSH on intracellular ROS” value in the experiment on HAP-1 and HAP-1.KO.GPx1 is reported as “No change was observed”. Also, the “influence of buffer pH on plasmid cleavage” value with pBR322 plasmid DNA (5 µM, 2 mM GSH, pH 5.1 to 8.1) is on record as “a trend favoring lower pH for higher cleavage effects was observed but was not proven to be statistically significant”. In addition, the DNA cleavage entry in the experiment on pBR322 plasmid DNA was “+”. In addition, the Ferroptosis in experiment [1] was found to be 0.
Turning to `CCOc1c2c(c3ccc(C(=O)N4CCOCC4)cn13)SSSSS2` [Compound 3, (6-Ethoxy-[1,2,3,4,5]pentathiepino[6,7-a]indolizin-9-yl)(morpholino)methanone], the “effect of added GSH on intracellular ROS” value in the experiment on HAP-1 and HAP-1.KO.GPx1 is given as “tendency toward decreased oxidative stress”. Further, the “fraction of damaged DNA” value in the experiment on pBR322 plasmid DNA (5 µM, 2 mM GSH, no enzyme added (CAT/SOD experiment)) is “about 43%”. Besides, the “open circular DNA” value in the experiment on pBR322 plasmid DNA (5 µM, 2 mM GSH, pH 5.1) was determined as 45%; in the experiment with pBR322 plasmid DNA (5 µM, 2 mM GSH, pH 6.1) it was 49%; with pBR322 plasmid DNA (5 µM, 2 mM GSH, pH 8.1), 28%. In addition, the “amount of broken plasmid” value in the experiment with pBR322 plasmid DNA (5 µM, 2 mM GSH, plus 100 µg/mL CAT) is recorded as 19%; with pBR322 plasmid DNA (5 µM, 2 mM GSH, plus 100 µg/mL SOD), 29%; in the experiment with pBR322 plasmid DNA (5 µM, 2 mM GSH, plus CAT and SOD) it was 19%. For the same molecule, in the experiment on pBR322 plasmid DNA (25 µM, 2 mM GSH), the “linearized plasmid” value was “about 4%”. In the experiment with pBR322 plasmid DNA (25 µM, 2 mM GSH), the “open circular DNA (single-strand breaks)” value is reported as “about 75%”. Further, the DNA cleavage result in the experiment on pBR322 plasmid DNA was “++”. The Ferroptosis in experiment [1] worked out at 0.
Consider `CCOc1c2c(c3ccc(C(=O)N4CCN(S(=O)(=O)c5ccc(C)cc5)CC4)cn13)SSSSS2` [Compound 6, (6-Ethoxy-[1,2,3,4,5]pentathiepino[6,7-a]indolizin-9-yl)(4-tosylpiperazinyl)methanone], for which the “effect of added GSH on intracellular ROS” value in the experiment on HAP-1 and HAP-1.KO.GPx1 is “tendency toward decreased oxidative stress”. Besides, the DNA cleavage entry in the experiment with pBR322 plasmid DNA is “+”. In addition, the Ferroptosis in experiment [1] is given as 0.
In the case of `CCOc1c2c(c3ccc(C(=O)N4CCCCC4)cn13)SSSSS2` [Compound 2, (6-Ethoxy-[1,2,3,4,5]pentathiepino[6,7-a]indolizin-9-yl)(piperidinyl)methanone], the “effect of added GSH on intracellular ROS” value with HAP-1 and HAP-1.KO.GPx1 is reported as “roughly doubling the effect of the compound alone”. For the same molecule, in the experiment on pBR322 plasmid DNA (25 µM, 2 mM GSH), the “linearized plasmid” value was “about 4%”. The DNA cleavage entry in the experiment with pBR322 plasmid DNA was “++”. This molecule also came in with a Ferroptosis in experiment [1] of 0.
